One block for each compound: values may come before it. Active and inactive are the calls of the source. No cut-off for these calls is given here.
Columns and labels:
[1] = Inhibition of nicotinic cholinergic receptor in rat PC12 cells assessed as inhibition of nicotine-stimulated [3H]-norepinephrine release after 30 mins by liquid scintillation counting analysis; assay type: cell-based; settings: PC-12
[2] = system: PC-12; experiment: Noncompetitive inhibition of nicotinic cholinergic receptor in rat PC12 cells assessed as inhibition of 100 to 1000 uM nicotine-induced [3H]-norepinephrine release at 5 uM after 30 mins by liquid scintillation counting analysis; assay type: cell-based
[3] = system: PC-12; experiment: Inhibition of ionomycin-mediated catecholamine secretion in rat PC12 cells at 5 uM after 30 mins by liquid scintillation counting analysis; assay type: functional, cell-based
[4] = system: PC-12; experiment: Inhibition of KCl-induced membrane depolarization in rat PC12 cells assessed as inhibition of catecholamine secretion at 5 uM after 30 mins by liquid scintillation counting analysis; assay type: functional, cell-based
[5] = system: PC-12; experiment: Cytotoxicity against rat PC12 cells assessed as cell viability at 5 to 10 uM after 24 hrs by trypan blue exclusion assay relative to control; assay type: cell-based; settings: pc-12, 24 h
[6] = system: PC-12; experiment: Inhibition of BaCl2-induced potassium channel blockade in rat PC12 cells assessed as inhibition of catecholamine secretion at 5 uM after 30 mins by liquid scintillation counting analysis; assay type: functional, cell-based
[7] = system: PC-12; experiment: Inhibition of nicotinic cholinergic receptor-mediated [3H]-norepinephrine release in rat PC12 cells after 30 mins by liquid scintillation counting analysis; assay type: cell-based
[8] = system: PC-12; experiment: (§1) Inhibition of nicotinic cholinergic receptor in rat PC12 cells assessed as inhibition of nicotine-stimulated 45Ca2+ uptake after 2 mins by liquid scintillation counting analysis; assay type: cell-based
[9] = as §1; assay type: cell-based; settings: PC-12, 2 min
[10] = system: PC-12; experiment: Inhibition of ATP-induced P2X receptor activation in rat PC12 cells assessed as inhibition of catecholamine secretion at 5 uM after 30 mins by liquid scintillation counting analysis; assay type: cell-based
[11] = system: Mus musculus; experiment: Antihypertensive activity in BPH/2J mouse polygenic hypertensive model assessed as reduction in heart rate at 5 ug/g, ip measured for 24 hrs by telemetry; assay type: functional
[12] = system: Mus musculus; experiment: Antihypertensive activity in BPH/2J mouse polygenic hypertensive model assessed as reduction in diastolic blood pressure at 5 ug/g, ip up to 60 mins by telemetry; assay type: functional, Artery
[13] = system: Mus musculus; experiment: Toxicity in BPH/2J mouse polygenic hypertensive model assessed as reflex tachycardia at 5 ug/g, ip measured for 24 hrs by telemetry; assay type: organism-based; settings: in vivo
[14] = system: Mus musculus; experiment: Antihypertensive activity in BPH/2J mouse polygenic hypertensive model assessed as reduction in systolic blood pressure at 5 ug/g, ip up to 60 mins by telemetry; assay type: functional, Artery

IC50 [1]: 2000 nM
SMILES: Nc1nc(N)c(/N=N/c2ccc(S(=O)(=O)Nc3ccccn3)cc2)cc1/N=N/c1ccccc1

IC50 [1]: 1000 nM
IC50 [9]: 100 nM
SMILES: CNC(=O)c1cc(NC(=O)Nc2cccc(C3=NCCN3)c2)cc(NC(=O)Nc2cccc(C3=NCCN3)c2)c1
inhibition [2]: Active
inhibition [3]: inactive
inhibition [4]: inactive
Activity [5]: Non-toxic
inhibition [6]: inactive
inhibition [7]: inactive
inhibition [8]: Dose-dependent effect
inhibition [10]: inactive

SMILES: C[N+](C)(C)CC[N+]1(C)Cc2c(Cl)c(Cl)c(Cl)c(Cl)c2C1
inhibition [2]: Active

IC50 [1]: > 5000 nM
SMILES: O=C(Nc1cc(C2=NCCN2)cc(C2=NCCN2)c1)Nc1cc(C2=NCCN2)cc(C2=NCCN2)c1

IC50 [1]: 24 nM
IC50 [9]: 100 nM
SMILES: C/N=C(\NC)c1ccc(NC(=O)Nc2ccc(C)c(NC(=O)Nc3ccc(/C(=N/C)NC)cc3)c2)cc1
inhibition [8]: Dose-dependent effect

IC50 [1]: 1800 nM
SMILES: C/N=C(\N)c1ccc(/N=C(\N)c2ccc(Cl)c(/C(N)=N/c3ccc(C(=N)NC)cc3)c2)cc1

SMILES: Cc1cc(NC(=O)NCc2ccc(N3C(N)=NC(N)=NC3(C)C)cc2)ccc1S(=O)(=O)F
IC50 [1]: 870 nM

IC50 [1]: > 5000 nM
SMILES: Cc1ccnc(NS(=O)(=O)c2ccc(/N=N/c3cc(/N=N/c4ccccc4)c(N)nc3N)cc2)n1

IC50 [1]: 1900 nM
SMILES: CCN1CCC(CNc2cc(C)nc(NC(=N)Nc3cc(Cl)cc(Cl)c3)n2)C1 (configuration not stated)

IC50 [1]: 1100 nM
SMILES: CCN1CCCC(Nc2cc(C)nc(NC(=N)Nc3ccc(Cl)c(Cl)c3)n2)C1 (configuration not stated)

IC50 [1]: 2600 nM
SMILES: Nc1ccc(CCCCc2nc(N)nc(N)c2-c2ccc(Cl)c(Cl)c2)cc1

IC50 [1]: 41 nM
IC50 [9]: 70 nM
SMILES: C/N=C(\NC)c1ccc(NC(=O)Nc2cccc(NC(=O)Nc3ccc(/C(=N/C)NC)cc3)c2)cc1
inhibition [8]: Dose-dependent effect

IC50 [1]: 680 nM
SMILES: CCN(CC)CC(O)CNC1=N/C(=N/C(=N)Nc2ccc(Cl)c(Cl)c2)N=C(C)C1 (configuration not stated)
inhibition [2]: Active
inhibition [3]: inactive
inhibition [4]: inactive
Activity [5]: Non-toxic
inhibition [6]: inactive
inhibition [7]: inactive
inhibition [10]: inactive

IC50 [1]: 450 nM
SMILES: CCN1CCC(CNc2cc(C)nc(NC(=N)Nc3ccc(Cl)c(Cl)c3)n2)C1 (configuration not stated)

IC50 [1]: 1500 nM
SMILES: Nc1nc(N)c(-c2ccc(Cl)cc2)c(CCc2ccc(NC(=O)CBr)cc2)n1

IC50 [1]: 1600 nM
SMILES: CCN/C(=N\c1cccc(C2=NCCN2)c1)c1ccc(/C(=N/c2cccc(C3=NCCN3)c2)NCC)cc1

SMILES: Nc1nc(N)c2nc(CNc3ccc(C(=O)N[C@@H](CCC(=O)O)C(=O)O)cc3)cnc2n1 [AMINOPTERIN]
IC50 [1]: > 5000 nM

IC50 [1]: 17 nM
IC50 [9]: 90 nM
SMILES: C/C(=N\NC(=N)N)c1cccc(NC(=S)Nc2cccc(/C(C)=N/NC(=N)N)c2)c1
Activity [11]: 180 bpm
Activity [12]: 25 mmHg
Activity [13]: Non-toxic
Activity [14]: 33 mmHg
inhibition [8]: Dose-dependent effect

IC50 [1]: 1400 nM
SMILES: CNC(=O)c1ccc(NC(=O)Nc2cccc(C3=NCCN3)c2)cc1NC(=O)Nc1cccc(C2=NCCN2)c1

IC50 [1]: > 5000 nM
SMILES: CC1(C)N=C(N)N=C(N)N1c1ccc(CNC(=O)Nc2ccccc2)cc1

IC50 [1]: 1700 nM
SMILES: C/N=C(\NC)c1ccc(/N=C(\NC)c2ccc(/C(=N/c3ccc(/C(=N/C)NC)cc3)NC)cc2)cc1
